# Source: paper PMC7782793, “Hydroxamic acid-modified peptide microarrays for profiling isozyme-selective interactions and inhibition of histone deacetylases” (Nature Communications, 2021)
# Where “and” joins values, the source holds several entries; their conditions need not be identical. Equal entries are not always repeated. Marks after values point to notes of the source that are not given here. Non-standard residues stand in square brackets, D forms with d. Residues, ends and D or L forms follow the SMILES beside them. *: point of attachment. Asu = N[C@@H](CCCCCC(=O)O)C(=O)O; NHOH = ON*
# Legend:
# Assay type in all cases: biochemical
# HDAC1 = target: T1, HDAC1 (Homo sapiens, UniProt Q13547); test: HDAC inhibition assay (fluorogenic, Ac-Leu-Gly-Lys(Ac)-AMC); settings: HDAC1, replicates
# T1 construct: HDAC1 (full length, C-terminal His tag, C-terminal FLAG tag, BPS Bioscience, cat. #: 50051); FLAG (C); purchased BPS Bioscience 50051
# HDAC2 = target: T2, HDAC2 (Homo sapiens, UniProt Q92769); test: as above; settings: HDAC2, replicates
# T2 construct: HDAC2 (full length, C-terminal His tag, BPS Bioscience, cat. #: 50002); purchased BPS Bioscience 50002
# HDAC3/NCoR2 = target: T3, HDAC3/NCoR2 (Homo sapiens, UniProt O15379); test: as above; settings: HDAC3, replicates
# T3 construct: HDAC3/NCoR2 (full length, C-terminal His tag, NCoR2 N-terminal GST tag); purchased BPS Bioscience 50003
# HDAC8 = target: T4, HDAC8 (Homo sapiens, UniProt Q9BY41); test: HDAC inhibition assay (fluorogenic, Ac-Leu-Gly-Lys(Tfa)-AMC); settings: HDAC8, replicates
# T4 construct: HDAC8 (full length, C-terminal His tag, BPS Bioscience, cat. #: 50008); purchased BPS Bioscience 50008
# T4 sequence (Q9BY41 1-377): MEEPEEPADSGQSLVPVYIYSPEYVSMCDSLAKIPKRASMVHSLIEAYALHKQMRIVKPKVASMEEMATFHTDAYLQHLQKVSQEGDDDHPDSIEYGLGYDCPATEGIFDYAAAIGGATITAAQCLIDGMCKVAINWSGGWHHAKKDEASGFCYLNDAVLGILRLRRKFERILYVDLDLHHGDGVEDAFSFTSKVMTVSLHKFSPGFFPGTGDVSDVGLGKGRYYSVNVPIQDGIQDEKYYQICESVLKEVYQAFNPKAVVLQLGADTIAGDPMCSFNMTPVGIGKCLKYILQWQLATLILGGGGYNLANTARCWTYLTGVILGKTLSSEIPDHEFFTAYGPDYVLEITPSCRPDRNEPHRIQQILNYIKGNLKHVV
# HDAC6 = target: T5, HDAC6 (Homo sapiens, UniProt Q9UBN7); test: HDAC inhibition assay (fluorogenic, Ac-Leu-Gly-Lys(Ac)-AMC); settings: HDAC6, replicates
# T5 construct: HDAC6 (full length, BPS Bioscience, cat. #: 50056); purchased BPS Bioscience 50056
# T5 sequence (Q9UBN7 1-1215): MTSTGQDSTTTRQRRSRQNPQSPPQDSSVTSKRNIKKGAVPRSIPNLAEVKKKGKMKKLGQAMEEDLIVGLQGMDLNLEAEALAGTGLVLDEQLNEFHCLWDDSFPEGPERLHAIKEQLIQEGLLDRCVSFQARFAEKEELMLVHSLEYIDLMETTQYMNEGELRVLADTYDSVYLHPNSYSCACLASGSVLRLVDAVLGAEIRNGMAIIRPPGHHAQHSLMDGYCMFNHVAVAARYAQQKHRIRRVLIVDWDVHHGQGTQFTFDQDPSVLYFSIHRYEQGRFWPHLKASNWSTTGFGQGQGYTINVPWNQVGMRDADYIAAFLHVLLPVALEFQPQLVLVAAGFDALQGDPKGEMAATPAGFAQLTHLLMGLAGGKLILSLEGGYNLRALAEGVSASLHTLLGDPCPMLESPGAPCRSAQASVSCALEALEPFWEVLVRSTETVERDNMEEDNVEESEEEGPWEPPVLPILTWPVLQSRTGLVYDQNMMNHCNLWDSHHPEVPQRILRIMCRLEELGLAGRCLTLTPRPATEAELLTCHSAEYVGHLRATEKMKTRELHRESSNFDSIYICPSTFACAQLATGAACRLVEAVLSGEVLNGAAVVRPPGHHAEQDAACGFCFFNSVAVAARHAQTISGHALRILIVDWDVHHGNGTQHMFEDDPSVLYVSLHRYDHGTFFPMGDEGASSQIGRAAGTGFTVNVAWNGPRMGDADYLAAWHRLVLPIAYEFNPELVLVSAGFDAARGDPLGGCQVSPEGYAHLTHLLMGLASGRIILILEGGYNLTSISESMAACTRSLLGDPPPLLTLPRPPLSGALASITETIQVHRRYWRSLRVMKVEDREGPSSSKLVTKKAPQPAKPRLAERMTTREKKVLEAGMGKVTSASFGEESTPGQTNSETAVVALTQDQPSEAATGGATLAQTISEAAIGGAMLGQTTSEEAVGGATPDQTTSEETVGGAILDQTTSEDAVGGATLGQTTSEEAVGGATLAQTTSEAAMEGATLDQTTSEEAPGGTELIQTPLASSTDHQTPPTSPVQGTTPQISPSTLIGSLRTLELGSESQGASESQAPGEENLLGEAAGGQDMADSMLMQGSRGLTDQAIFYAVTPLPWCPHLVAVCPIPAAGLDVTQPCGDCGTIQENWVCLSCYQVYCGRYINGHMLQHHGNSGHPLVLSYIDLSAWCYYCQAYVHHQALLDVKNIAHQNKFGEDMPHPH
# [1] = log[inhibitor(M)] -10,5850266520292*
# T1 sequence (Q13547 whole entry): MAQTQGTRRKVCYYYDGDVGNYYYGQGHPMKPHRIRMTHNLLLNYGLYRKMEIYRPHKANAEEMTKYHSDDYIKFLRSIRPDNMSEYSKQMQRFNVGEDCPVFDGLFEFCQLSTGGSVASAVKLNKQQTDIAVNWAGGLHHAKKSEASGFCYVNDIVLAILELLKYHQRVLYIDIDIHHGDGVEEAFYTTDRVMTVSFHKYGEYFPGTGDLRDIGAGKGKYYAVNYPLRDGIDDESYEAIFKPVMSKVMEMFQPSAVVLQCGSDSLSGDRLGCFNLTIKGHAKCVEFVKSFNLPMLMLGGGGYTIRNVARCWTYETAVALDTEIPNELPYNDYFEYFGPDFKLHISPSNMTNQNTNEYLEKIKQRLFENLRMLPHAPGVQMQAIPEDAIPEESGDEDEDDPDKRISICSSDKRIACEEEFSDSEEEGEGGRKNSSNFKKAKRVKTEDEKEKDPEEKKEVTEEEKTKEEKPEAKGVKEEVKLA
# T3 sequence (O15379 whole entry): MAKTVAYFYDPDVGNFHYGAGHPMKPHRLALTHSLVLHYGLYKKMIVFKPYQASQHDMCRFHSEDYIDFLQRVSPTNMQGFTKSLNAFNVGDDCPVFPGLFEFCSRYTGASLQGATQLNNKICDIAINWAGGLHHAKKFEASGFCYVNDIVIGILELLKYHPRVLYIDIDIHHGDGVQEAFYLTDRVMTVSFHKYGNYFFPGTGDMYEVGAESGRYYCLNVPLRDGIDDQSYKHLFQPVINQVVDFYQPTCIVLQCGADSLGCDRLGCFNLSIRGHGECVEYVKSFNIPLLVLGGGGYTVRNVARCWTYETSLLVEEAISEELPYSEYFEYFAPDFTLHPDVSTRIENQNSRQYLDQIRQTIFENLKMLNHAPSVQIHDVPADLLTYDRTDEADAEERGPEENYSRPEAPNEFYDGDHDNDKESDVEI
# T3 sequence (Q9Y618 389-480 partner limits assumed): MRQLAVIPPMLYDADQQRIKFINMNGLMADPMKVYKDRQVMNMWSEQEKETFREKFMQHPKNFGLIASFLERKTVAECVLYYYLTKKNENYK
# T2 sequence (Q92769 whole entry): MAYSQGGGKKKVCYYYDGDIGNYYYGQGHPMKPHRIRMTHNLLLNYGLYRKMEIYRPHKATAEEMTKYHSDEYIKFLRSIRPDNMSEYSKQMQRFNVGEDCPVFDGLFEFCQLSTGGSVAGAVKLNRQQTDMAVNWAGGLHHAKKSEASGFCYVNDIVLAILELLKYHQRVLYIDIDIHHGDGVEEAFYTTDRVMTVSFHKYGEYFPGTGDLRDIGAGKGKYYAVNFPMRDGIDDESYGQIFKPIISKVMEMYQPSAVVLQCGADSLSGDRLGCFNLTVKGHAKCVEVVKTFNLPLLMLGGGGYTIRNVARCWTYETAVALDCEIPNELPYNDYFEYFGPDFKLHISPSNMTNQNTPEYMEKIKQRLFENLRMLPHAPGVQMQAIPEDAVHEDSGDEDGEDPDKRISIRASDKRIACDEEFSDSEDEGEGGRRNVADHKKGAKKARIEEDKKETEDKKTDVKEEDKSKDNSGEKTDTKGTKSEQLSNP
compound,measurement,setting,value
CC(=O)N[C@@H](CCCCN)C(=O)NCC(=O)NCC(=O)N[C@@H](CCCCN)C(=O)NCC(=O)N[C@@H](CC(C)C)C(=O)NCC(=O)N[C@@H](CCCCCC(=O)NO)C(=O)NCC(=O)NCC(=O)N[C@@H](C)C(=O)N[C@@H](CCCCN)C(=O)N[C@@H](CCCNC(=N)N)C(=O)N[C@@H](Cc1c[nH]cn1)C(=O)N[C@@H](CCCNC(=N)N)C(=O)N[C@@H](Cc1c[nH]c2ccccc12)C(N)=O [1a] (Ac-KGGKGLG[Asu](NHOH)GGAKRHRW-NH2),residual enzymatic activity relative to control wells,HDAC1; log[inhibitor(M)] -4.30103,0.3873 and 0.804
same,residual enzymatic activity relative to control wells,HDAC1; log[inhibitor(M)] -5,1.615 and 1.98
same,residual enzymatic activity relative to control wells,HDAC1; log[inhibitor(M)] -5.69897,4.97 and 7.056
same,residual enzymatic activity relative to control wells,HDAC1; log[inhibitor(M)] -6.39794,17.3755 and 23.9522
same,residual enzymatic activity relative to control wells,HDAC1; log[inhibitor(M)] -7.09691,42.4661 and 51.6182
same,residual enzymatic activity relative to control wells,HDAC1; log[inhibitor(M)] -7.79588,69.6554 and 78.2753
same,residual enzymatic activity relative to control wells,HDAC1; log[inhibitor(M)] -8.49485,90.2096 and 95.3244
same,residual enzymatic activity relative to control wells,HDAC1; log[inhibitor(M)] -9.19382,98.0899 and 101.545
same,residual enzymatic activity relative to control wells,HDAC1; log[inhibitor(M)] -9.89279,100.633 and 103.923
same,residual enzymatic activity relative to control wells,HDAC1; [1],"100,638665* and 104,135042*"
same,residual enzymatic activity relative to control wells,HDAC2; log[inhibitor(M)] -5,2.133 and 2.791
same,residual enzymatic activity relative to control wells,HDAC2; log[inhibitor(M)] -5.69897,7.69 and 10.6271
same,residual enzymatic activity relative to control wells,HDAC2; log[inhibitor(M)] -7.79588,81.9038 and 87.9722
same,residual enzymatic activity relative to control wells,HDAC2; [1],"96,4513363* and 102,627848*"
same,residual enzymatic activity relative to control wells,HDAC3/NCoR2; log[inhibitor(M)] -4.30103,"0,27707809* and 0,48240325*"
same,residual enzymatic activity relative to control wells,HDAC3/NCoR2; log[inhibitor(M)] -5,1.078 and 1.224
same,residual enzymatic activity relative to control wells,HDAC3/NCoR2; log[inhibitor(M)] -5.69897,2.835 and 3.644
same,residual enzymatic activity relative to control wells,HDAC3/NCoR2; log[inhibitor(M)] -6.39794,8.976 and 10.8935
same,residual enzymatic activity relative to control wells,HDAC3/NCoR2; log[inhibitor(M)] -7.09691,20.3107 and 23.0019
same,residual enzymatic activity relative to control wells,HDAC3/NCoR2; log[inhibitor(M)] -7.79588,35.6703 and 40.8157
same,residual enzymatic activity relative to control wells,HDAC3/NCoR2; log[inhibitor(M)] -8.49485,61.9563 and 69.3477
same,residual enzymatic activity relative to control wells,HDAC3/NCoR2; log[inhibitor(M)] -9.19382,85.7851 and 89.42
same,residual enzymatic activity relative to control wells,HDAC3/NCoR2; log[inhibitor(M)] -9.89279,97.8645 and 95.529
same,residual enzymatic activity relative to control wells,HDAC3/NCoR2; log[inhibitor(M)] -10.585,99.8741 and 99.2523
same,residual enzymatic activity relative to control wells,HDAC8; log[inhibitor(M)] -4.30103,0.7299 and 0.6853
same,residual enzymatic activity relative to control wells,HDAC8; log[inhibitor(M)] -5,2.535 and 2.3091
same,residual enzymatic activity relative to control wells,HDAC8; log[inhibitor(M)] -5.69897,8.883 and 8.651
same,residual enzymatic activity relative to control wells,HDAC8; log[inhibitor(M)] -6.39794,23.8025 and 24.0279
same,residual enzymatic activity relative to control wells,HDAC8; log[inhibitor(M)] -7.09691,53.2804 and 53.6221
same,residual enzymatic activity relative to control wells,HDAC8; log[inhibitor(M)] -7.79588,81.5639 and 82.7228
same,residual enzymatic activity relative to control wells,HDAC8; log[inhibitor(M)] -8.49485,92.8692 and 94.6574
same,residual enzymatic activity relative to control wells,HDAC8; log[inhibitor(M)] -9.19382,96.2557 and 98.5897
same,residual enzymatic activity relative to control wells,HDAC8; log[inhibitor(M)] -9.89279,97.4874 and 100.887
same,residual enzymatic activity relative to control wells,HDAC8; [1],"99,4860668* and 101,450216*"
same,residual enzymatic activity relative to control wells,HDAC6; log[inhibitor(M)] -4.30103,2.005 and 0.9042
same,residual enzymatic activity relative to control wells,HDAC6; log[inhibitor(M)] -5,3.396 and 1.499
same,residual enzymatic activity relative to control wells,HDAC6; log[inhibitor(M)] -5.69897,3.721 and 2.924
same,residual enzymatic activity relative to control wells,HDAC6; log[inhibitor(M)] -6.39794,6.701 and 7.197
same,residual enzymatic activity relative to control wells,HDAC6; log[inhibitor(M)] -7.09691,17.8452 and 18.76
same,residual enzymatic activity relative to control wells,HDAC6; log[inhibitor(M)] -7.79588,40.4588 and 44.1884
same,residual enzymatic activity relative to control wells,HDAC6; log[inhibitor(M)] -8.49485,67.624 and 70.0247
same,residual enzymatic activity relative to control wells,HDAC6; log[inhibitor(M)] -9.19382,82.7418 and 78.8697
same,residual enzymatic activity relative to control wells,HDAC6; log[inhibitor(M)] -9.89279,94.6266 and 87.8667
same,residual enzymatic activity relative to control wells,HDAC6; log[inhibitor(M)] -10.585,92.0979 and 95.7297
